Test system: MDA-MB-231 cells
Assay: co-culture of CD-expressing MDA231 cells with unlabeled control cells, anti-BrdU immunostaining
Type: cell-based, human
Conditions: CD only, without UPRT and thymine
Method: FIG. 1a-f. Labeling and purification of RNA by CD expression and 5-FC treatment. FIG. 1a—Schematic diagram showing RNA labeling using CD and 5-FC. FIG. 1b—Chemical reactions steps involved in the labeling of RNA using CD and 5-FC. The dotted arrow indicates the intermediary steps that are not shown. FIG. 1c Relative fold enrichment of mRNA isolated by Flura-tagging. 293T cells expressing CD or unlabeled controls were treated with 5-FC for the indicated times, labeled mRNAs were immunopurified using anti-BrdU antibody, and the levels of labeled mRNAs of the indicated genes relative to corresponding non-immunoprecipitated inputs normalized to immunopurified mRNAs from cells not expressing CD were quantified by RT-PCR. […] FIG. 1d—Schematic diagram of the constructs used for inducible expression of UPRT and/or CD, and the experimental design. Transduced RFP+MDA231 cells were mixed with unlabeled cells, treated with doxycycline for 24 h and then 5-FC for 4-12 h. Cells were analyzed by immunofluorescence or harvested for RNA analysis. FIG. 1e—Flura-tagging in MDA231 cells in vitro. […] The fold enrichment of the indicated representative human genes over mouse housekeeping genes (mHPRT1 and mLDH1) was measured by RT-PCR (n=3±S.E.). […]
Next, we determined whether 5-FU-labeled mRNAs can be specifically and efficiently isolated by immunoprecipitation. […]

Structure (SMILES): Nc1nc(=O)[nH]cc1F [5-FC, 5-fluorocytosine]
- 5-FU-labeling of neighboring cells not expressing CD: led to 5-FU-labeling of cells that did not express CD as well
